US4698352A, “4-oxo-1,4-dihydronicotinic acid derivatives, salts thereof, and antibacterial agents containing the same” (Toyama Chemical Co., Ltd., priority 1982, dated 1987)
≈ marks a conversion by molar mass, not a printed value. Where two headings read alike, the source gives them in different places.

What was measured:
Test in all cases: Antibacterial activity (MIC), agar dilution
Format in all cases: cell-based
E. coli TK-3* = conditions: Escherichia coli, 20 h
Source text: (§1) The amount of bacteria inoculated was 10^4 cells per plate (10^6 cells per ml).
(§2) * Penicillinase-producing bacteria

St. aureus F-137* = conditions: Staphylococcus aureus, 20 h
Source text: as §1, §2

Ps. aeruginosa GN3379* = conditions: Pseudomonas aeruginosa, Ps. aeruginosa GN3379, penicillinase-producing, 10^6 cells per ml
Source text: as §1, §2

Kl. pneumoniae Y-4* = conditions: Klebsiella pneumoniae, 20 h, Kl. pneumoniae Y-4, penicillinase-producing; 10^6 cells per ml; read-out: MIC
Source text: as §1, §2

Pro. vulgaris GN3027 = conditions: Proteus vulgaris, GN3027, 20 h, Pro. vulgaris GN3027; 10^6 cells per ml; 37° C., 20 hours; read-out: MIC
Source text: as §1

St. aureus FDA209P = conditions: Staphylococcus aureus, FDA209P, 20 h, St. aureus FDA209P; 10^6 cells per ml; 37° C., 20 hours; read-out: MIC
Source text: as §1

Aci. antitratus A-6 = conditions: 20 h, Aci. antitratus A-6; 10^6 cells per ml; 37° C., 20 hours; read-out: MIC
Source text: as §1

Ps. aeruginosa S-68 = conditions: Pseudomonas aeruginosa
Source text: as §1

E. coli TK-111 = conditions: Escherichia coli, TK111, 20 h
Source text: as §1

Pro. mirabilis T-111 = conditions: Proteus mirabilis, 37° C.
Source text: as §1

Ent. cloacae IID977 = conditions: Enterobacter cloacae, IID977, 20 h
Source text: as §1

Kl. pneumoniae Y-50 = conditions: Klebsiella pneumoniae, Y50, 20 h, 10^6 cells per ml, 37° C., read-out: MIC
Source text: as §1

Ps. aeruginosa IFO3445 = conditions: Pseudomonas aeruginosa
Source text: as §1

Kl. pneumoniae Y-41 = conditions: Klebsiella pneumoniae, Y41, 10^6 cells per ml, 37° C., 20 hours, read-out: MIC
Source text: as §1

E. coli NIHJ JC-2 = conditions: Escherichia coli, NIHJJC2, 20 h
Source text: as §1

Pro. morganii T-216 = conditions: Morganella morganii, 37° C.
Source text: as §1

Ps. aeruginosa GN918** = conditions: Pseudomonas aeruginosa, Ps. aeruginosa GN918, cephalospolinase-producing, 10^6 cells per ml
Source text: as §1
(§3) ** Cephalospolinase-producing bacteria

Pro. vulgaris GN76** = conditions: Proteus vulgaris
Source text: as §1, §3

E. coli GN5482** = conditions: Escherichia coli, 20 h; E. coli GN5482, cephalospolinase-producing; 10^6 cells per ml; read-out: MIC
Source text: as §1, §3

[1] = St. aureus F-137, penicillinase-producing, 10^6 cells per ml, read-out: MIC
[2] = E. coli TK-111, 10^6 cells per ml, 37° C., 20 hours, read-out: MIC
[3] = T111, 10^6 cells per ml, 20 hours, read-out: MIC
[4] = E. coli NIHJ JC-2, 10^6 cells per ml, 37° C., 20 hours, read-out: MIC
[5] = 20 h, Pro. vulgaris GN76, cephalospolinase-producing, 10^6 cells per ml, read-out: MIC
[6] = E. coli TK-3, penicillinase-producing, 10^6 cells per ml, read-out: MIC
[7] = Ent. cloacae IID977, 10^6 cells per ml, 37° C., 20 hours, read-out: MIC
[8] = Ps. aeruginosa IFO3445, 10^6 cells per ml, 37° C., 20 hours, read-out: MIC
[9] = T216, 10^6 cells per ml, 20 hours, read-out: MIC
[10] = S68, Ps. aeruginosa S-68, 10^6 cells per ml, 37° C., 20 hours, read-out: MIC

| Structure (SMILES) | MIC (St. aureus F-137*; [1]) [µg/mL] | MIC (Ps. aeruginosa GN3379*; 20 h, read-out: MIC) [µg/mL] | MIC (Kl. pneumoniae Y-4*) [µg/mL] | MIC (Pro. vulgaris GN3027) [µg/mL] | MIC (St. aureus FDA209P) [µg/mL] | MIC (Aci. antitratus A-6) [µg/mL] | MIC (Ps. aeruginosa S-68; S68, 20 h) [µg/mL] | MIC (E. coli TK-111; [2]) [µg/mL] | MIC (Pro. mirabilis T-111; [3]) [µg/mL] | MIC (Kl. pneumoniae Y-50) [µg/mL] | MIC (Kl. pneumoniae Y-41) [µg/mL] | MIC (E. coli NIHJ JC-2; [4]) [µg/mL] | MIC (Pro. morganii T-216; T216, 20 h, 10^6 cells per ml) [µg/mL] | MIC (Ps. aeruginosa GN918**; 20 h, read-out: MIC) [µg/mL] | MIC (Pro. vulgaris GN76**; [5]) [µg/mL] | MIC (E. coli GN5482**) [µg/mL] | MIC (E. coli TK-3*; [6]) [µg/mL] | MIC (Ent. cloacae IID977; [7]) [µg/mL] | MIC (Ps. aeruginosa IFO3445; [8]) [µg/mL] | MIC (Pro. mirabilis T-111; T111, 20 h, 10^6 cells per ml) [µg/mL] | also measured |
| --- | --- | --- | --- | --- | --- | --- | --- | --- | --- | --- | --- | --- | --- | --- | --- | --- | --- | --- | --- | --- | --- |
| Cc1cc(O)ccc1-n1cc(C(=O)O)c(=O)cc1C1=CCCC1 | 0.78 (≈ 2.51 µM) | 25 (≈ 80.3 µM) | 6.25 (≈ 20.1 µM) | 0.1 (≈ 0.321 µM) | 0.78 (≈ 2.51 µM) | 0.78 (≈ 2.51 µM) | 6.25 (≈ 20.1 µM) | 0.2 (≈ 0.642 µM) | 3.13 (≈ 10.1 µM) | 0.39 (≈ 1.25 µM) | 1.56 (≈ 5.01 µM) | 0.78 (≈ 2.51 µM) | 1.56 (≈ 5.01 µM) | 3.13 (≈ 10.1 µM) | 0.78 (≈ 2.51 µM) | 0.1 (≈ 0.321 µM) |  |  |  |  | MIC (E. coli TK-3*): 1.56 µg/mL (≈ 5.01 µM); MIC (Ent. cloacae IID977): 1.56 µg/mL (≈ 5.01 µM); MIC (Ps. aeruginosa IFO3445; IFO3445, 20 h): 6.25 µg/mL (≈ 20.1 µM) |
| CC=Cc1cc(=O)c(C(=O)O)cn1-c1ccc(O)cc1C |  | 25 (≈ 87.6 µM) | 25 (≈ 87.6 µM) | 0.39 (≈ 1.37 µM) | 6.25 (≈ 21.9 µM) | 6.25 (≈ 21.9 µM) | 12.5 (≈ 43.8 µM) |  | 25 (≈ 87.6 µM) | 1.56 (≈ 5.47 µM) | 12.5 (≈ 43.8 µM) | 3.13 (≈ 11 µM) |  | 6.25 (≈ 21.9 µM) |  | 0.39 (≈ 1.37 µM) | 3.13 (≈ 11 µM) | 6.25 (≈ 21.9 µM) | 25 (≈ 87.6 µM) |  | MIC (St. aureus F-137*): 12.5 µg/mL (≈ 43.8 µM); MIC (E. coli TK-111): 1.56 µg/mL (≈ 5.47 µM); MIC (Pro. morganii T-216; [9]): 3.13 µg/mL (≈ 11 µM); MIC (Pro. vulgaris GN76**; GN76, 20 h): 1.56 µg/mL (≈ 5.47 µM) |
| Cc1cc(O)ccc1-n1cc(C(=O)O)c(=O)cc1CCc1ccccc1 | 0.78 (≈ 2.23 µM) |  | 12.5 (≈ 35.8 µM) | 0.1 (≈ 0.286 µM) | 0.78 (≈ 2.23 µM) | 0.39 (≈ 1.12 µM) | 12.5 (≈ 35.8 µM) | 0.39 (≈ 1.12 µM) |  | 1.56 (≈ 4.46 µM) | 12.5 (≈ 35.8 µM) | 3.13 (≈ 8.96 µM) |  | 3.13 (≈ 8.96 µM) |  | 0.2 (≈ 0.572 µM) | 3.13 (≈ 8.96 µM) | 6.25 (≈ 17.9 µM) | 25 (≈ 71.6 µM) | 12.5 (≈ 35.8 µM) | MIC (Ps. aeruginosa GN3379*; GN3379, 20 h): 12.5 µg/mL (≈ 35.8 µM); MIC (Pro. morganii T-216; [9]): 3.13 µg/mL (≈ 8.96 µM); MIC (Pro. vulgaris GN76**; GN76, 20 h): 1.56 µg/mL (≈ 4.46 µM) |
| CC(=O)Oc1ccc(-n2cc(C(=O)OCC(O)CO)c(=O)cc2-c2ccc(N(C)C)cc2)cc1 (centres unmarked) | 1.56 (≈ 3.34 µM) | 50 (≈ 107 µM) | 25 (≈ 53.6 µM) | 0.78 (≈ 1.67 µM) | 1.56 (≈ 3.34 µM) | 1.56 (≈ 3.34 µM) |  | 0.78 (≈ 1.67 µM) | 25 (≈ 53.6 µM) | 3.13 (≈ 6.71 µM) | 25 (≈ 53.6 µM) |  |  | 12.5 (≈ 26.8 µM) | 6.25 (≈ 13.4 µM) | 0.1 (≈ 0.214 µM) | 6.25 (≈ 13.4 µM) | 6.25 (≈ 13.4 µM) | 50 (≈ 107 µM) |  | MIC (Ps. aeruginosa S-68; [10]): 25 µg/mL (≈ 53.6 µM); MIC (E. coli NIHJ JC-2): 3.13 µg/mL (≈ 6.71 µM); MIC (Pro. morganii T-216; [9]): 12.5 µg/mL (≈ 26.8 µM) |
| O=C(O)c1cn(-c2ccc(O)cc2)c(-c2ccc(N3CCCC3)cc2)cc1=O | 0.1 (≈ 0.266 µM) |  | 3.13 (≈ 8.32 µM) | 0.2 (≈ 0.531 µM) | 0.2 (≈ 0.531 µM) | ≤ 0.05 | 3.13 (≈ 8.32 µM) | 0.2 (≈ 0.531 µM) |  | 0.78 (≈ 2.07 µM) | 1.56 (≈ 4.14 µM) | 0.39 (≈ 1.04 µM) | 1.56 (≈ 4.14 µM) |  | 0.78 (≈ 2.07 µM) | ≤ 0.05 | 0.78 (≈ 2.07 µM) | 0.78 (≈ 2.07 µM) | 6.25 (≈ 16.6 µM) | 1.56 (≈ 4.14 µM) | MIC (Ps. aeruginosa GN3379*; GN3379, 20 h): 3.13 µg/mL (≈ 8.32 µM); MIC (Ps. aeruginosa GN918**; GN918, 20 h): 1.56 µg/mL (≈ 4.14 µM) |
| Cc1nc(-c2ccc(-c3cc(=O)c(C(=O)O)cn3-c3ccc(F)cc3)cc2)cs1 | 0.2 (≈ 0.492 µM) | 25 (≈ 61.5 µM) | 25 (≈ 61.5 µM) | 1.56 (≈ 3.84 µM) | 0.2 (≈ 0.492 µM) | 0.1 (≈ 0.246 µM) |  | 0.39 (≈ 0.96 µM) |  | 3.13 (≈ 7.7 µM) | 6.25 (≈ 15.4 µM) | 1.56 (≈ 3.84 µM) | 3.13 (≈ 7.7 µM) |  |  | 0.78 (≈ 1.92 µM) |  |  | 25 (≈ 61.5 µM) | 6.25 (≈ 15.4 µM) | MIC (E. coli TK-3*): 3.13 µg/mL (≈ 7.7 µM); MIC (Ps. aeruginosa S-68; [10]): 12.5 µg/mL (≈ 30.8 µM); MIC (Ent. cloacae IID977): 6.25 µg/mL (≈ 15.4 µM); MIC (Ps. aeruginosa GN918**; GN918, 20 h): 3.13 µg/mL (≈ 7.7 µM); MIC (Pro. vulgaris GN76**; GN76, 20 h): 3.13 µg/mL (≈ 7.7 µM) |
| Cc1nc(-c2ccc(-c3cc(=O)c(C(=O)O)cn3-c3ccc(O)cc3C)cc2)co1 | 0.1 (≈ 0.249 µM) | 6.25 (≈ 15.5 µM) | 3.13 (≈ 7.78 µM) | 0.39 (≈ 0.969 µM) | 0.1 (≈ 0.249 µM) | 0.39 (≈ 0.969 µM) | 3.13 (≈ 7.78 µM) | ≤ 0.05 |  | 0.2 (≈ 0.497 µM) | 1.56 (≈ 3.88 µM) | 0.1 (≈ 0.249 µM) | 3.13 (≈ 7.78 µM) | 0.78 (≈ 1.94 µM) | 0.78 (≈ 1.94 µM) | ≤ 0.05 | 0.2 (≈ 0.497 µM) | 0.39 (≈ 0.969 µM) |  | 1.56 (≈ 3.88 µM) | MIC (Ps. aeruginosa IFO3445; IFO3445, 20 h): 3.13 µg/mL (≈ 7.78 µM) |
| Cc1nc(-c2ccc(-c3cc(=O)c(C(=O)O)cn3-c3ccc(F)cc3)cc2)co1 | 0.39 (≈ 0.999 µM) | 25 (≈ 64 µM) | 12.5 (≈ 32 µM) | 0.39 (≈ 0.999 µM) | 0.39 (≈ 0.999 µM) | 0.2 (≈ 0.512 µM) | 12.5 (≈ 32 µM) | 0.39 (≈ 0.999 µM) |  | 1.56 (≈ 4 µM) | 6.25 (≈ 16 µM) | 0.78 (≈ 2 µM) | 6.25 (≈ 16 µM) | 3.13 (≈ 8.02 µM) | 3.13 (≈ 8.02 µM) | 0.2 (≈ 0.512 µM) | 3.13 (≈ 8.02 µM) | 3.13 (≈ 8.02 µM) | 25 (≈ 64 µM) | 6.25 (≈ 16 µM) |  |
